Among the data in patent US10501479B2, “Benzenesulfonyl-asymmetric ureas and medical uses thereof” (HELSINN HEALTHCARE SA, priority 2016, dated 2019) are EC50 and IC50 values, retold here.

Like-named read-outs stand apart in the source and are kept apart here. Where only a bound is given, the exact number is not on record here.

Format in all cases: cell-based
Test [1] addresses T1, recombinant human ghrelin receptor (HEK293/GRLN) (Homo sapiens, UniProt Q92847).
T1 construct: expressed in transfected cells
Description: Ghrelin inverse agonist potency (EC50) with IP-1 (IP-One HTRF) assay. The conditions noted are these: IP-1 assay. An outline of the steps: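 IP-1 accumulation was measured by HTRF (IP1-d2/Tb-cryptate, 620/665 nm read after 1 hour at room temperature) following 1 hour of compound treatment at 37° C. Cells were HEK293 stably expressing human ghrelin receptor, plated a day earlier on Matrigel. Inverse agonist potency was reported as EC50.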
On the technique in general: TR-FRET usually uses a lanthanide donor and a delayed reading to cut background.

The target in test [2] is T2, GHSR-1a (HEK293/GHSR1a cell line) (Homo sapiens, UniProt Q92847).
T2 construct: expressed in transfected cells; host or cells: HEK293/GHSR1a cell line
T2 sequence (Q92847 whole entry): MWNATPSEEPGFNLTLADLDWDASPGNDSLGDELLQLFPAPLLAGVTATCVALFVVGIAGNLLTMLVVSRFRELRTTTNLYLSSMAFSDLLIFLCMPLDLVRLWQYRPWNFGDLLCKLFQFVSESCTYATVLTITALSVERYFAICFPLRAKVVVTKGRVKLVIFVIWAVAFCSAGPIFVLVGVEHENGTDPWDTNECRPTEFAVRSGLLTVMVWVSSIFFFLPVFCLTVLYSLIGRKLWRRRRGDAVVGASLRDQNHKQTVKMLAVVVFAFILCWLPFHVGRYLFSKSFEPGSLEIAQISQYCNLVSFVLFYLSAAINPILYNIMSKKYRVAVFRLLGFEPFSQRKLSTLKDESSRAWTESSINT
The experiment in a line: Ghrelin agonist potency (EC50) with calcium FLIPR assay. The procedure, abridged: (§1)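 Calcium flux was followed 2 min by FLIPR in dye-loaded HEK293/GHSR1a cells. For antagonist IC50, compound and ghrelin (10 nM) were co-added at t=20 sec and inhibition of the ghrelin signal fitted; for agonist EC50, compound alone was added at t=20 sec and dose-response fitted.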

Test [3] deals with T2, GHSR-1a (HEK293/GHSR1a cell line). The experiment in a line: Ghrelin antagonist potency (IC50) with calcium FLIPR assay, ghrelin 10 nM. The procedure, abridged:
as §1

Setting [4] is: ghrelin inverse agonist potency, read-out: Activity EC50.
The mark [5] stands for this setting: ghrelin agonist potency, read-out: Activity EC50/EMax.
Where [6] appears, read: ghrelin antagonist potency, read-out: Activity IC50.
Setting [7] is: HEK293/GRLN, read-out: Activity EC50 (ghrelin inverse agonist potency).
Setting [8] is: HEK293/GHSR1a, read-out: Activity EC50/EMax: EC50 (ghrelin agonist potency).
[9] abbreviates: HEK293/GHSR1a, ghrelin 10 nM, read-out: Activity IC50 (ghrelin antagonist potency).

In general, IC50 refers to the concentration that gives 50% inhibition.

T1 sequence (Q92847 whole entry): as above

On to `CC(c1ccccc1)N(C)C(=O)Nc1ccc(S(=O)(=O)Cc2ccc3c(c2)CN(C)C3)cc1O` (stereo not drawn) [H1474, 3-(2-hydroxy-4-(((2-methylisoindolin-5-yl)methyl)sulfonyl)phenyl)-1-methyl-1-(1-phenylethyl)urea], for which the results for the EC50 in test [1] (setting [4]) and in test [2] (setting [5]) were 133 nM and above 30000 nM, respectively. Further, the IC50 in test [3] (setting [6]) was 700 nM.

With `C[C@@H](NC(=O)Nc1ccc(S(=O)(=O)Cc2csc3c2CN(C)C3)cc1)c1ccccc1` [H1351, (R)-1-(4-(((5-methyl-5,6-dihydro-4H-thieno[2,3-c]pyrrol-3-yl)methyl)sulfonyl)phenyl)-3-(1-phenylethyl)urea], the EC50 in test [1] (setting [7]) is 6960 nM; in test [2] (setting [8]), above 30000 nM. For the same molecule, in test [3] (setting [9]), the IC50 was 3450 nM.

Consider `COc1ccc(C(C)NC(=O)Nc2ccc3c(c2)C=C(c2ccc4c(c2)CN(Cc2ccccc2)C4)S3(=O)=O)cc1` (stereo not drawn) [H1296, 1-(2-(2-benzylisoindolin-5-yl)-1,1-dioxidobenzo[b]thiophen-5-yl)-3-(1-(4-methoxyphenyl)ethyl)urea], for which the results for the EC50 in test [1] (setting [7]) and in test [2] (setting [8]) were 4920 nM and 13200 nM, respectively. Moreover, the IC50 in test [3] (setting [9]) was above 30000 nM.

Take `C[C@@H](NC(=O)Nc1ccc(S(=O)(=O)Cc2cc3c(s2)CN(C)C3)cc1)c1ccccc1` [H1348, (R)-1-(4-(((5-methyl-5,6-dihydro-4H-thieno[2,3-c]pyrrol-2-yl)methyl)sulfonyl)phenyl)-3-(1-phenylethyl)urea]: the EC50 is 19.9 nM in test [1] (setting [7]) and above 30000 nM in test [2] (setting [8]). In addition, the IC50 in test [3] (setting [9]) was found to be 65 nM.

On to `CC(c1ccccc1)n1c(=O)[nH]c2ccc(S(=O)(=O)Cc3ccc4c(c3)CN(C)C4)cc2c1=O` (stereo not drawn) [H1470, 6-(((2-methylisoindolin-5-yl)methyl)sulfonyl)-3-(1-phenylethyl)quinazoline-2,4(1H,3H)-dione], for which the EC50 in test [1] (setting [4]) worked out at 22.3 nM; in test [2] (heading: Activity EC50/EMax, ghrelin agonist potency, read-out: Activity EC50/EMax), 227 nM. Further, the IC50 in test [3] (setting [6]) was 483 nM.

Take `C[C@H](NC(=O)Nc1ccc(S(=O)(=O)Cc2nc3c(s2)CNC3)cc1)c1ccccc1` [H1465, (S)-1-(4-(((5,6-dihydro-4H-pyrrolo[3,4-d]thiazol-2-yl)methyl)sulfonyl)phenyl)-3-(1-phenylethyl)urea]: the EC50 in test [1] (setting [4]) was 678 nM; in test [2] (setting [5]), above 30000 nM. In addition, the IC50 in test [3] (setting [6]) was found to be 5290 nM.

For `CNC(=O)c1cc(NC(=O)NC(C)c2ccccc2)ccc1S(=O)(=O)Cc1ccc2c(c1)CNC2` (stereo not drawn) [H1529, 2-((isoindolin-5-ylmethyl)sulfonyl)-N-methyl-5-(3-(1-phenylethyl)ureido)benzamide], the EC50 was 27.8 nM in test [1] (setting [4]) and above 30000 nM in test [2] (setting [5]). Further, the IC50 in test [3] (setting [6]) turned out to be 47.4 nM.

As to `O=C(Nc1ccc(S(=O)(=O)Cc2ccc3c(c2)CNC3)cc1)NC1COc2ccccc21` (stereo not drawn) [H1330, 1-(2,3-dihydrobenzofuran-3-yl)-3-(4-((isoindolin-5-ylmethyl)sulfonyl)phenyl)urea], the EC50 was 142 nM in test [1] (setting [7]) and above 30000 nM in test [2] (setting [8]). The IC50 in test [3] (setting [9]) was determined as 147 nM.

For `COC(=O)c1cc(S(=O)(=O)Cc2ccc3c(c2)CN(C)C3)ccc1NC(=O)NC(C)c1ccccc1` (stereo not drawn) [H1466, methyl 5-(((2-methylisoindolin-5-yl)methyl)sulfonyl)-2-(3-(1-phenylethyl)ureido)benzoate], the EC50 in test [1] (setting [4]) was 16.8 nM; in test [2] (setting [5]), above 30000 nM. Moreover, the IC50 in test [3] (setting [6]) was found to be 72.4 nM.

Turning to `CC(c1ccccc1)N(C)C(=O)Nc1ccc(S(=O)(=O)Cc2ccc3c(c2)CCNC3)cc1F` (stereo not drawn) [H1414, 3-(2-fluoro-4-(((1,2,3,4-tetrahydroisoquinolin-6-yl)methyl)sulfonyl)phenyl)-1-methyl-1-(1-phenylethyl)urea], the EC50 in test [1] (setting [7]) is 589 nM; in test [2] (setting [8]), above 30000 nM. For the same molecule, the 50% inhibitory concentration (IC50) in test [3] (setting [9]) amounted to 2090 nM.

Turning to `CC(NC(=O)Nc1ccc(S(=O)(=O)Cc2ccc3c(c2)C(F)(F)CN(C)C3)cc1)c1cccc(Cl)c1Cl` (stereo not drawn) [H1548, 1-(1-(2,3-dichlorophenyl)ethyl)-3-(4-(((4,4-difluoro-2-methyl-1,2,3,4-tetrahydroisoquinolin-6-yl)methyl)sulfonyl)phenyl)urea], the EC50 is 132 nM in test [1] (setting [4]) and above 30000 nM in test [2] (setting [5]). Moreover, the IC50 in test [3] (setting [6]) was found to be 655 nM.

As to `CC(NC(=O)Nc1ccc(S(=O)(=O)CC2CCC(NCC3CC3)CC2)cc1)c1cccc(Cl)c1Cl` (stereo not drawn) [H1371, 1-(4-(((4-((cyclopropylmethyl)amino)cyclohexyl)methyl)sulfonyl)phenyl)-3-(1-(2,3-dichlorophenyl)ethyl)urea], the EC50 in test [1] (setting [7]) was 231 nM; in test [2] (setting [8]), above 30000 nM. In test [3] (setting [9]), the IC50 amounted to 2440 nM.

As for `COc1ccc(C(C)NC(=O)Nc2ccc(S(=O)(=O)Cc3ccc4c(c3)CN(C)C4)cc2)cc1Cl` (stereo not drawn) [H1476, 1-(1-(3-chloro-4-methoxyphenyl)ethyl)-3-(4-(((2-methylisoindolin-5-yl)methyl)sulfonyl)phenyl)urea], the values for the EC50 in test [1] (setting [4]) and in test [2] (setting [5]) were 24.1 nM and above 30000 nM, respectively. In addition, in test [3] (setting [6]), the IC50 was found to be 42.6 nM.

As for `CC(NC(=O)N(O)c1ccc(S(=O)(=O)Cc2ccc3c(c2)CN(C)C3)cc1)c1ccccc1` (stereo not drawn) [H1458, 1-hydroxy-1-(4-(((2-methylisoindolin-5-yl)methyl)sulfonyl)phenyl)-3-(1-phenylethyl)urea], the EC50 in test [1] (setting [4]) was 288 nM; in test [2] (setting [5]) it was above 30000 nM. Besides, the IC50 in test [3] (setting [6]) was 1170 nM.

Take `CC1Cc2cc(CS(=O)(=O)c3ccc(NC(=O)N(C)Cc4ccccc4)cc3)ccc2CN1` (stereo not drawn) [H1416, 1-benzyl-1-methyl-3-(4-(((3-methyl-1,2,3,4-tetrahydroisoquinolin-6-yl)methyl)sulfonyl)phenyl)urea]: the EC50 is 26.6 nM in test [1] (setting [7]) and above 30000 nM in test [2] (setting [8]). In test [3] (setting [9]), the IC50 amounted to 1040 nM.

For the molecule `CC(NC(=O)Nc1ccc(S(=O)(=O)Cc2ccc3c(c2)CNC3)cc1)c1ccc2c(c1)OCO2` (stereo not drawn) [H1452, 1-(1-(benzo[d][1,3]dioxol-5-yl)ethyl)-3-(4-((isoindolin-5-ylmethyl)sulfonyl)phenyl)urea], the EC50 in test [1] (setting [7]) was 34.8 nM; in test [2] (setting [8]) it was above 30000 nM. For the same molecule, in test [3] (setting [9]), the IC50 was 87 nM.

Turning to `CC(NC(=O)Nc1ccc(S(=O)(=O)Cc2cccc(CN)c2)cc1)c1ccccc1` (stereo not drawn) [H1290, 1-(4-((3-(aminomethyl)benzyl)sulfonyl)phenyl)-3-(1-phenylethyl)urea], the EC50 was 722 nM in test [1] (setting [7]) and above 30000 nM in test [2] (setting [8]). Further, the IC50 in test [3] (setting [9]) was found to be 3410 nM.

`C[C@@H](NC(=O)Nc1ccc(S(=O)(=O)Cc2ccc3c(c2)C(F)CNC3)cc1)c1ccccc1` (stereo partly drawn) [H1540, 1-(4-(((4-fluoro-1,2,3,4-tetrahydroisoquinolin-6-yl)methyl)sulfonyl)phenyl)-3-((R)-1-phenylethyl)urea]: the EC50 is 206 nM in test [1] (setting [4]) and above 30000 nM in test [2] (setting [5]). The IC50 in test [3] (setting [6]) is 7440 nM.

Regarding `COc1c(CS(=O)(=O)c2ccc(NC(=O)NC(C)c3cccc(Cl)c3Cl)cc2)ccc2c1CCN(C)C2` (stereo not drawn) [H1369, 1-(1-(2,3-dichlorophenyl)ethyl)-3-(4-(((5-methoxy-2-methyl-1,2,3,4-tetrahydroisoquinolin-6-yl)methyl)sulfonyl)phenyl)urea], the EC50 was 1.1 nM in test [1] (setting [7]) and above 30000 nM in test [2] (setting [8]). The IC50 in test [3] (setting [9]) was 3.66 nM.

Turning to `COc1cc(S(=O)(=O)Cc2ccc3c(c2)CC(C)N(C)C3)ccc1NC(=O)NC(C)c1ccccc1` (stereo not drawn) [H1440, 1-(4-(((2,3-dimethyl-1,2,3,4-tetrahydroisoquinolin-6-yl)methyl)sulfonyl)-2-methoxyphenyl)-3-(1-phenylethyl)urea], the EC50 in test [1] (setting [7]) was 2.9 nM; in test [2] (setting [8]), above 30000 nM. The IC50 in test [3] (setting [9]) was 4.4 nM.

Regarding `COc1cc(S(=O)(=O)Cc2ccc3c(c2)CN(C)C3)ccc1NC(=O)NC(C)c1ccccc1OC` (stereo not drawn) [H1438, 1-(2-methoxy-4-(((2-methylisoindolin-5-yl)methyl)sulfonyl)phenyl)-3-(1-(2-methoxyphenyl)ethyl)urea], the EC50 was 2.76 nM in test [1] (setting [7]) and above 30000 nM in test [2] (setting [8]). In addition, the IC50 in test [3] (setting [9]) was determined as 12.6 nM.

As to `COc1cc(S(=O)(=O)Cc2ccc3c(c2)CN(C)C3)ccc1NC(=O)NC(C)c1c(F)cccc1F` (stereo not drawn) [H1437, 1-(1-(2,6-difluorophenyl)ethyl)-3-(2-methoxy-4-(((2-methylisoindolin-5-yl)methyl)sulfonyl)phenyl)urea], the results for the EC50 in test [1] (setting [7]) and in test [2] (setting [8]) were 10 nM and above 30000 nM, respectively. The IC50 in test [3] (setting [9]) is 24.3 nM.

Take `CC(NC(=O)Nc1ccc(S(=O)(=O)Cc2ccc3c(c2)C(F)(F)CN(C)C3)cc1)c1ccccc1` (stereo not drawn) [H1546, 1-(4-(((4,4-difluoro-2-methyl-1,2,3,4-tetrahydroisoquinolin-6-yl)methyl)sulfonyl)phenyl)-3-(1-phenylethyl)urea]: the EC50 in test [1] (setting [4]) was 126 nM; in test [2] (setting [5]) it was above 30000 nM. Moreover, the IC50 in test [3] (setting [6]) was 1080 nM.

For the molecule `CC(c1ccccc1)N(C)C(=O)Nc1ccc(S(=O)(=O)Cc2ccc3c(c2F)CNC3)cc1` (stereo not drawn) [H1409, 3-(4-(((4-fluoroisoindolin-5-yl)methyl)sulfonyl)phenyl)-1-methyl-1-(1-phenylethyl)urea], the EC50 in test [1] (setting [7]) was 74.5 nM; in test [2] (setting [8]) it was above 30000 nM. Further, the IC50 in test [3] (setting [9]) came to 282 nM.

As to `CC(NC(=O)Nc1ccc(C(=O)Nc2ccc3c(c2)CNC3)cc1)c1ccccc1` (stereo not drawn) [H1479, N-(isoindolin-5-yl)-4-(3-(1-phenylethyl)ureido)benzamide], the EC50 in test [1] (setting [4]) is 1950 nM; in test [2] (setting [5]), above 30000 nM. For the same molecule, in test [3] (setting [6]), the concentration for half-maximal inhibition (IC50) worked out at 2500 nM.
